Source: patent publication US20210163404A1, “NOVEL UREA COMPOUNDS AND BIOISOSTERES THEREOF AND THEIR USE FOR TREATING INFLAMMATION AND INFLAMMATION-RELATED PATHOLOGIES” (UNIVERSITÉ LAVAL, priority 2017, published 2021)
Several values for one entry are separate records, joined by “and”; a condition that tells them apart may be missing. Equal values may be shown once.

Columns and labels:
[1] = system: HaCaT keratinocyte cell line; assay: Antiproliferative activity (NCI procedure, sulforhodamine B), HaCaT; type: cell-based, human; conditions: Homo sapiens, HaCaT, unit inferred, tested 781 nM to 100 μM, 48 h
Method: (§1) The antiproliferative activity of compounds 3a-b, 4a-e, 5a-e and 6a-e was subsequently evaluated using the human HT-29 colon adenocarcinoma and the A549 adenocarcinoma alveolar epithelial cancer cell lines, the HaCaT spontaneously transformed aneuploid immortal keratinocyte cell line and the HDFn neonatal dermal fibroblast cell line (Table 2). Cell growth inhibition was assessed according to the NCI/NIH Developmental Therapeutics Program.
(§2) The antiproliferative activity assay of all compounds was assessed using the procedure recommended by the National Cancer Institute for its drug screening program with minor modifications. Briefly, 96-well microtiter plates were seeded with 75 μL of a suspension of either HaCaT (5×10^3), HT-29 (3.0×10^3), A549 (3.0×10^3) or HDFn (3×10^3) cells per well in DMEM and incubated for 24 h at 37° C. in a moisture-saturated atmosphere containing 5% CO2. Compounds freshly solubilized in DMSO (40 mM) were diluted in fresh DMEM, and 75 μL aliquots containing serially diluted concentrations of the compound were added. Final compound concentrations ranged from 100 μM to 781 nM. DMSO was maintained at a concentration of <0.5% (v/v) to avoid any related cytotoxicity. Plates were subsequently incubated for 48 h. Cell growth was then stopped by the addition of cold trichloroacetic acid to the wells (10% w/v, final concentration), followed by a 1 h incubation period at 4° C. The plates were washed 4-times with water. A sulforhodamine B solution (75 μL; 0.1% w/v) in acetic acid (1%) was subsequently added to each well and the plates incubated over a 15 min period while at room temperature. After staining, any unbound dye was removed by washing 4-times with an acetic acid solution (1%). Bound dye was solubilized in 20 mM Tris base and the absorbance was measured at an optimal wavelength (530-568 nm) using a μQuant® Universal microplate spectrophotometer (BioTek, Winooski, Vt.). The measurements for treated cells were compared with measurements from control cell plates fixed on treatment day and the percentage of cell growth inhibition was calculated for each drug. The experiments were performed at least twice in triplicate. The assays were considered valid when the coefficient of variation for a given set of conditions and within the same experiment was <10%.

[2] = system: HT-29 colon adenocarcinoma cells; assay: Antiproliferative activity (NCI procedure, sulforhodamine B), HT-29; type: cell-based, human; conditions: Homo sapiens, HT-29, unit inferred, tested 781 nM to 100 μM, 48 h
Method: as §1, §2

[3] = system: A549 adenocarcinoma alveolar epithelial cancer cells; assay: Antiproliferative activity (NCI procedure, sulforhodamine B), A549; type: cell-based, human; conditions: Homo sapiens, A549, unit inferred, tested 781 nM to 100 μM, 48 h
Method: as §1, §2

[4] = system: HDFn neonatal dermal fibroblast cell line; assay: Antiproliferative activity (NCI procedure, sulforhodamine B), HDFn; type: cell-based, human; conditions: Homo sapiens, Fibroblast, unit inferred, tested 781 nM to 100 μM, 48 h
Method: as §1, §2

Row | melting point | Compound | IC50 ([1]; Table 7) | IC50 ([2]; Table 7) | IC50 ([3]; Table 7) | IC50 ([4]; Table 7) | other results
1 |  | CC(C)(C)c1ccc(Nc2c(NC3CC3)c(=O)c2=O)cc1 [Compound 82] | 47.9 µM | 18.7 µM | 17.9 µM | 13.2 µM | 
2 |  | O=c1c(Nc2ccc(I)cc2)c(NC2CC2)c1=O [Compound 70] | > 100 µM | > 100 µM | > 100 µM | > 100 µM | 
3 |  | O=c1c(Nc2cccc(I)c2)c(NC2CCCC2)c1=O [Compound 75] | 11.8 µM | 15.2 µM | 9 µM | 4.6 µM | 
4 | 142 to 144 °C | O=C(NCC1CCCC1)Nc1ccc(C2CCCCC2)cc1 [Compound 59] |  |  |  |  | 
5 | 151 to 153 °C | O=C(Nc1cccc(I)c1)NC1CC=CC1 [Compound 41, 1-(Cyclopent-3-en-1-yl)-3-(3-iodophenyl)urea] |  |  |  |  | 
6 |  | CCNC(=S)Nc1cccc(C2CCCCC2)c1 [Compound 104] |  |  |  |  | IC50 ([1]; Table 8): 19.3 µM; IC50 ([2]; Table 8): 17.9 µM; IC50 ([3]; Table 8): 22.4 µM; IC50 ([4]; Table 8): 12.9 µM
7 | 158 to 161 °C and 158 to 162 °C | O=C(NCC1CCCC1)Nc1ccc(I)cc1 [Compound 25, 1-(Cyclopentylmethyl)-3-(4-iodophenyl)urea] |  |  |  |  | 
8 |  | O=c1c(NCC2CCC2)c(Nc2cccc(C3CCCCC3)c2)c1=O [Compound 80] | 6 µM | 4.5 µM | 4.2 µM | 1.9 µM | 
9 | 178 to 180 °C | O=C(Nc1cccc(I)c1)NC1CCC1 [Compound 38, 1-Cyclobutyl-3-(3-iodophenyl)urea] |  |  |  |  | 
10 | 122 to 124 °C | COCCNC(=O)Nc1ccc(C(C)(C)C)cc1 [Compound 33, 1-(4-(t-Butyl)phenyl)-3-(2-methoxyethyl)urea] |  |  |  |  | 
11 |  | O=c1c(Nc2ccc(I)cc2)c(NC2CCCC2)c1=O [Compound 72] | 10.6 µM | 10 µM | 8 µM | 6.9 µM | 
12 | 174 to 176 °C | CCC(CC)NC(=O)Nc1ccc(I)cc1 [Compound 64, 1-(4-Iodophenyl)-3-(pentan-3-yl)urea] |  |  |  |  | 
13 |  | O=c1c(Nc2cccc(C3CCCCC3)c2)c(NC2CC2)c1=O [Compound 79] | 11 µM | 7.9 µM | 8 µM | 4.3 µM | 
14 |  | CC(C)(C)c1cccc(Nc2c(NCC3CCC3)c(=O)c2=O)c1 [Compound 86] | 56.1 µM | 14.8 µM | 13.7 µM | 3.8 µM | 
15 |  | CC(C)(C)c1ccc(Nc2c(NCC3CCC3)c(=O)c2=O)cc1 [Compound 83] | > 100 µM | > 100 µM | > 100 µM | > 100 µM | 
16 | 114 to 115 °C | CC(C)(C)CNC(=O)Nc1cccc(I)c1 [Compound 43, 1-(3-Iodophenyl)-3-neopentylurea] |  |  |  |  | 
17 |  | O=c1c(Nc2ccc(C3CCCCC3)cc2)c(NC2CC2)c1=O [Compound 76] | > 100 µM | > 100 µM | 74 µM | > 100 µM | 
18 | 119 to 120 °C | COCCNC(=O)Nc1cccc(C(C)(C)C)c1 [Compound 52, 1-(3-(t-Butyl)phenyl)-3-(2-methoxyethyl)urea] |  |  |  |  | 
19 | 185 to 187 °C | CC(C)(C)CNC(=O)Nc1ccc(C(C)(C)C)cc1 [Compound 65, 1-(4-(t-Butyl)phenyl)-3-neopentylurea] |  |  |  |  | 
20 | 113 to 114 °C | CC(C)(C)c1cccc(NC(=O)NCC2CCCC2)c1 [Compound 49] |  |  |  |  | 
21 |  | CC(C)NC(=O)Nc1ccc(I)cc1 [Compound 1] |  |  |  |  | IC50 ([1]; Table 5): 91.9 µM; IC50 ([2]; Table 5): 54.8 µM; IC50 ([3]; Table 5): 81.9 µM; IC50 ([4]; Table 5): 83.6 µM
22 | 159 to 161 °C | CCC(CC)NC(=O)Nc1cccc(C(C)(C)C)c1 [Compound 53, 1-(3-(t-Butyl)phenyl)-3-(pentan-3-yl)urea] |  |  |  |  | 

Row | melting point | Compound | IC50 ([1]; Table 7) | IC50 ([2]; Table 7) | IC50 ([3]; Table 7) | IC50 ([4]; Table 7) | other results
23 |  | O=c1c(Nc2ccc(C3CCCCC3)cc2)c(NC2CCCC2)c1=O [Compound 78] | > 100 µM | > 100 µM | 96.1 µM | > 100 µM | 
24 | 165 to 166 °C | CC(C)(C)c1cccc(NC(=O)NCC2CC2)c1 [Compound 45, 1-(3-(t-Butyl)phenyl)-3-(cyclopropylmethyl)urea] |  |  |  |  | 
25 | 99 to 101 °C | COCCNC(=O)Nc1cccc(I)c1 [Compound 42, 1-(3-Iodophenyl)-3-(2-methoxyethyl)urea] |  |  |  |  | 
26 | 167 to 169 °C | O=C(Nc1ccc(C2CCCCC2)cc1)NC1CC=CC1 [Compound 60, 1-(4-Cyclohexylphenyl)-3-(cyclopent-3-en-1-yl)urea] |  |  |  |  | 
27 | 141 to 143 °C | COCCNC(=O)Nc1ccc(I)cc1 [Compound 26, 1-(4-Iodophenyl)-3-(2-methoxyethyl)urea] |  |  |  |  | 
28 | 174 to 176 °C | CCC(CC)NC(=O)Nc1ccc(C2CCCCC2)cc1 [Compound 62, 1-(4-Cyclohexylphenyl)-3-(pentan-3-yl)urea] |  |  |  |  | 
29 | 135 to 137 °C | CC(C)(C)c1cccc(NC(=O)NC2CC=CC2)c1 [Compound 50, 1-(3-(t-Butyl)phenyl)-3-(cyclopent-3-en-1-yl)urea] |  |  |  |  | 
30 | 189 to 190 °C | CC(C)(C)c1ccc(NC(=O)NC2CCC2)cc1 [Compound 29, 1-(4-(t-Butyl)phenyl)-3-cyclobutylurea] |  |  |  |  | 
31 |  | O=c1c(Nc2cccc(I)c2)c(NC2CC2)c1=O [Compound 73] | 37.7 µM | 39.8 µM | 26.8 µM | 19.6 µM | 
32 |  | CC(C)(C)c1ccc(Nc2c(NC3CCCC3)c(=O)c2=O)cc1 [Compound 84] | > 100 µM | > 100 µM | 15.1 µM | > 100 µM | 
33 | 165 to 166 °C | CC(C)(C)c1cccc(NC(=O)NC2CCC2)c1 [Compound 46, 1-(3-(t-Butyl)phenyl)-3-cyclobutylurea] |  |  |  |  | 
34 | 119 to 121 °C | CCC(CC)NC(=O)Nc1ccc(C(C)(C)C)cc1 [Compound 34, 1-(4-(t-Butyl)phenyl)-3-(pentan-3-yl)urea] |  |  |  |  | 
35 | 145 to 147 °C | CC(C)(C)CNC(=O)Nc1cccc(C(C)(C)C)c1 [Compound 51, 1-(3-(t-Butyl)phenyl)-3-neopentylurea] |  |  |  |  | 
36 | 139 to 140 °C | O=C(NCC1CC1)Nc1cccc(I)c1 [Compound 37, 1-(Cyclopropylmethyl)-3-(3-iodophenyl)urea] |  |  |  |  | 
37 |  | O=c1c(Nc2cccc(C3CCCCC3)c2)c(NC2CCCC2)c1=O [Compound 81] | 5.6 µM | 4.3 µM | 3.7 µM | 1.9 µM | 
38 |  | O=c1c(NCC2CCC2)c(Nc2ccc(I)cc2)c1=O [Compound 71] | > 100 µM | > 100 µM | > 100 µM | > 100 µM | 
39 |  | CC(C)(C)c1cccc(Nc2c(NC3CCCC3)c(=O)c2=O)c1 [Compound 87] | 5.5 µM | 4.3 µM | 4 µM | 2.8 µM | 
40 | 208 to 210 °C | O=C(Nc1ccc(I)cc1)NC1CCC1 [Compound 22, 1-Cyclobutyl-3-(4-iodophenyl)urea] |  |  |  |  | 
41 | 168 to 170 °C | CC(C)(C)c1ccc(NC(=O)NCC2CC2)cc1 [Compound 28, 1-(4-(t-Butyl)phenyl)-3-(cyclopropylmethyl)urea] |  |  |  |  | 
42 |  | CC(C)(C)c1cccc(Nc2c(NC3CC3)c(=O)c2=O)c1 [Compound 85] | 81.4 µM | 64.1 µM | 40.8 µM | 57.3 µM | 
43 |  | O=c1c(NCC2CCC2)c(Nc2cccc(I)c2)c1=O [Compound 74] | 10.9 µM | 15 µM | 8.3 µM | 4.1 µM | 
44 |  | O=c1c(NCC2CCC2)c(Nc2ccc(C3CCCCC3)cc2)c1=O [Compound 77] | > 100 µM | > 100 µM | 89.6 µM | > 100 µM | 
